Measured values published in ChEMBL document CHEMBL1201862, “PubChem BioAssay data set” (2004).
Calls of active or inactive are those of the source.

How the values were obtained:
[1] = viability loss in THP-1 monocytes – THP-1 cells, cytotoxicity control for Vif-APOBEC3G degradation inhibitor project, dose response (AID 1117359); assay type: functional; conditions: THP-1
Protein Tat = target: T1, Protein Tat (Human immunodeficiency virus type 1 group M subtype B (isolate HXB2)(HIV-1), UniProt P04608); assay type: functional;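 note: tat binding to TAR RNA read out by fluorescence polarization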
T1 sequence (P04608 whole entry): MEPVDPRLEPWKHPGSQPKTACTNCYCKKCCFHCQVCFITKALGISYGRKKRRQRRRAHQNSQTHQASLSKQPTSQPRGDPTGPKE

[2] = target: T2, Mannose-6-phosphate isomerase (Homo sapiens, UniProt P34949); experiment: MPI inhibition at elevated mannose 6-phosphate – biochemical, fluorescence intensity, high mannose 6-phosphate, primary screen (AID 1220)
T2 sequence (P34949 whole entry): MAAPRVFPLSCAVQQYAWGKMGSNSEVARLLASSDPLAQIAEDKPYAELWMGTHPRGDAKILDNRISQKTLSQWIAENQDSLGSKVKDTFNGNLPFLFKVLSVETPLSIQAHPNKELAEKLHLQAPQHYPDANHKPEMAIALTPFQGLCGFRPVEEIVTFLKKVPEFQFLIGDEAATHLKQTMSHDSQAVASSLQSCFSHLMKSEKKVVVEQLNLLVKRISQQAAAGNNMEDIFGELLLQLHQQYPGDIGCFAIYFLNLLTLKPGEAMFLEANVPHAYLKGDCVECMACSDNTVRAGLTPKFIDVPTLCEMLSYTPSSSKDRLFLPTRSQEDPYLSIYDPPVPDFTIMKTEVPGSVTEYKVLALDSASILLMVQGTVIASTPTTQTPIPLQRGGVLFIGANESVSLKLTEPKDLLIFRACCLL

cells = assay type: functional
HT-1080 = experiment: HT1080 cell viability loss – fluorescence readout (AID 620); assay type: functional, cell-based; conditions: Homo sapiens
[3] = target: Luciferin 4-monooxygenase (Photinus pyralis, UniProt P08659); experiment: Counter Screen for Luciferase-based Assay Positives. [Related pubchem assays: 620, 618, 411 ]
[4] = target: T3, Sentrin-specific protease 8 (Homo sapiens, UniProt Q96LD8); assay type: functional
T3 sequence (Q96LD8 whole entry): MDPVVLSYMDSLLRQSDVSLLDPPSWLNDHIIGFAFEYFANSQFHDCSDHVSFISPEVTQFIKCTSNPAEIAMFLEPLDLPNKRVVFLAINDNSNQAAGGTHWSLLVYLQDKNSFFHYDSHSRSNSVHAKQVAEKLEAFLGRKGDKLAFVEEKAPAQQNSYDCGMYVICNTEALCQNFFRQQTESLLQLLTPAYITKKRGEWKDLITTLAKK

[5] = target: T3, Sentrin-specific protease 8; assay type: functional; remark: listed apart in the source
Protein RecA = target: T4, Protein RecA (Mycobacterium tuberculosis, UniProt P9WHJ3); experiment: Fluorescence Cell-Free Homogeneous Dose Retest to Identify Inhibitors of RecA-Intein Splicing Activity. [Related pubchem assays (depositor defined):AID2097, AID2223, AID489010, AID492950]; assay type: functional
T4 sequence (P9WHJ3 whole entry): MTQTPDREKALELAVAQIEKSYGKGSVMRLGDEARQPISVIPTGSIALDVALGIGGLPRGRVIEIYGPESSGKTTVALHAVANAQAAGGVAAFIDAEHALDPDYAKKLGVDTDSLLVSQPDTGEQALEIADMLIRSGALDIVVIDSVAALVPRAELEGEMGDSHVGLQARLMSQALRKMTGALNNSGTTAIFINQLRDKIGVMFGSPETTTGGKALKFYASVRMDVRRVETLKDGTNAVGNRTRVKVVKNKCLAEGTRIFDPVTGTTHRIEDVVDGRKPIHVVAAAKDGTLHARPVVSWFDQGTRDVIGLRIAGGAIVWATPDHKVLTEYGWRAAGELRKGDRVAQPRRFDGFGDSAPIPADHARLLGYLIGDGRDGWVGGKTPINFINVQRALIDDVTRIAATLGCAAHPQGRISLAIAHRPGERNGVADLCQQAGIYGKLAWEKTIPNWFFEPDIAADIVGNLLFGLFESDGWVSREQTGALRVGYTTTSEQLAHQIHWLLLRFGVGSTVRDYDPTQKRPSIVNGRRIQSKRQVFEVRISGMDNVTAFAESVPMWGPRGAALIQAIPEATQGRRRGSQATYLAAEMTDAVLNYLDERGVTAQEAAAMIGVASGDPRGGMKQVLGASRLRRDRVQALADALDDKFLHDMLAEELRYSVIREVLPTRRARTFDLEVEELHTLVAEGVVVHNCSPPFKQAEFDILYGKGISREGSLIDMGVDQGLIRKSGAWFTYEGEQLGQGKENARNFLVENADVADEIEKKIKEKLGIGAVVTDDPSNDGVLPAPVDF

[6] = target: T5, Replicative DNA helicase DnaB (Mycobacterium tuberculosis, UniProt P9WMR3); experiment: DnaB intein splicing inhibitors, dose response, biochemical, cell-free fluorescence (AID 449749); assay type: functional
T5 sequence (P9WMR3 whole entry): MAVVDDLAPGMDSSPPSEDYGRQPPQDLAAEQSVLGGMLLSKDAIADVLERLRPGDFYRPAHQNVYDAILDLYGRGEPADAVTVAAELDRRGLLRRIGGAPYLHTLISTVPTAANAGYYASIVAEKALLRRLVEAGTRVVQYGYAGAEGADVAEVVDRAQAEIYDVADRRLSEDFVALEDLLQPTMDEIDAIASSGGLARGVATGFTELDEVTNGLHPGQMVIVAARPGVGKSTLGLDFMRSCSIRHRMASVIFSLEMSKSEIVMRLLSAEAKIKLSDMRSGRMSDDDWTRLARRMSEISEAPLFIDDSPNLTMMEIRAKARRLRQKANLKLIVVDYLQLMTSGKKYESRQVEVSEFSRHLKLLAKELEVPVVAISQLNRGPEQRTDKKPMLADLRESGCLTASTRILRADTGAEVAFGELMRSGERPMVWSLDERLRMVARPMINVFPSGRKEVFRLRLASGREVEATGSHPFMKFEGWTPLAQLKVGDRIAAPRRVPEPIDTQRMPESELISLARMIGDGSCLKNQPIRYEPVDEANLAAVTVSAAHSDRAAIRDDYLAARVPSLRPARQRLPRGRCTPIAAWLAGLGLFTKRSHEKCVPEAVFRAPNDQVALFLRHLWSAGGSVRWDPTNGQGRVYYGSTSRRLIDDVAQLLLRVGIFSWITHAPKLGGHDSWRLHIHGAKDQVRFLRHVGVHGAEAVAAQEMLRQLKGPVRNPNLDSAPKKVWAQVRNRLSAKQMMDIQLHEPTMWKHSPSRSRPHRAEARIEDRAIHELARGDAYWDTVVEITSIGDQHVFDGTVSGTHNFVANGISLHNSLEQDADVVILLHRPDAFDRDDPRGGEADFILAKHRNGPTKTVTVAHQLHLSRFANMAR

[7] = NIH-3T3 fibroblast cytotoxicity, dose response, cytotoxicity control, cell-based, fluorescence, Alamar Blue, secondary assay (AID 2327); assay type: functional;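 note: NIH-3T3 mouse fibroblasts cultured with fluconazole at 8 µg/mL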
[8] = target: T6, DNA repair and recombination protein RAD54-like (Homo sapiens, UniProt Q92698); experiment: RAD54 Holliday junction migration blockers – biochemical, fluorescence, cherry-picked samples, dose series, confirmation (AID 651657); assay type: functional
T6 sequence (Q92698 whole entry): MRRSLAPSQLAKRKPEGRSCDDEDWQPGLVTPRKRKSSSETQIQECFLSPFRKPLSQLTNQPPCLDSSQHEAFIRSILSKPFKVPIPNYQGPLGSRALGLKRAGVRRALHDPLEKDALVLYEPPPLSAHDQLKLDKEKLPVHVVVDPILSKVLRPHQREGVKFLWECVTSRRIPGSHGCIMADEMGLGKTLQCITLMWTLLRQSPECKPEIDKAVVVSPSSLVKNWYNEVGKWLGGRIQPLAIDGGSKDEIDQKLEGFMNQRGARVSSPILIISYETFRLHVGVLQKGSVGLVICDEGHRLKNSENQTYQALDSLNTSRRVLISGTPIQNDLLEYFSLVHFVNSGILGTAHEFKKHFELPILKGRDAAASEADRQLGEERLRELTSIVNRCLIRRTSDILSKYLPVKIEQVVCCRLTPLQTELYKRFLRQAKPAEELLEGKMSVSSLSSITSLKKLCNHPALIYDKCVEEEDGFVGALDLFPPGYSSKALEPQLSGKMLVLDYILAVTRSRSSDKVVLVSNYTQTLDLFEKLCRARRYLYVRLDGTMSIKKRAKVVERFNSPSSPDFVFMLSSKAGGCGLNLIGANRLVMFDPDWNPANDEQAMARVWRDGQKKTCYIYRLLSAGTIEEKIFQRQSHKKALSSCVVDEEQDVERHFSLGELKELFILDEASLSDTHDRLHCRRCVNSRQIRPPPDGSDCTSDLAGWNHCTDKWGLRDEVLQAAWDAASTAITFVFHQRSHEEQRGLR

[9] = target: T7, Ubiquitin-conjugating enzyme E2 N (Homo sapiens, UniProt P61088); assay type: functional
T7 sequence (P61088 whole entry): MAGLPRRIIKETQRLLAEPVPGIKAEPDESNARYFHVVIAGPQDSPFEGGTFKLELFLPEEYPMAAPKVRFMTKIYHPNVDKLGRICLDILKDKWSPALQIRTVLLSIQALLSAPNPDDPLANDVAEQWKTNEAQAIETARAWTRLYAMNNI

Bcl-2-related protein A1 = target: T8, Bcl-2-related protein A1 (Mus musculus, UniProt Q07440); assay type: functional;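 note: confirmatory dose–response counterscreen on Bfl-1, used to check hits from a UBC13 polyubiquitin inhibitor campaign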
T8 sequence (Q07440 whole entry): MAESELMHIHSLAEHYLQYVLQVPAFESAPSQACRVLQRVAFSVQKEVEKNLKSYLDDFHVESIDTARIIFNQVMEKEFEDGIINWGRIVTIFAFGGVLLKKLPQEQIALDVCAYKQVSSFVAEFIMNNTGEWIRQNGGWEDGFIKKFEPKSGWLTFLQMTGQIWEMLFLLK

[10] = target: T9, Small ubiquitin-related modifier 1 (Homo sapiens, UniProt P63165); experiment: SUMO1 protein-protein binding blockers, potency – biochemical, FRET, dose response (AID 624383); assay type: functional; conditions: read-out: IC50_Mean
[11] = target: T9, Small ubiquitin-related modifier 1; experiment: SUMO1 protein interaction blockers, potency – biochemical, fluorescence polarization, uHTS hits, dose response (AID 624382); assay type: functional; conditions: read-out: IC50_Mean
[12] = target: T7, Ubiquitin-conjugating enzyme E2 N; assay type: functional; remark: listed apart in the source
[13] = fluconazole-exposed Candida albicans growth modulators – fluorescence, retest, confirmation (AID 2467); assay type: functional, cell-based
[14] = target: T10, Rac GTPase-activating protein 1 (Homo sapiens, UniProt Q9H0H5); experiment: blockers of MgcRacGAP-driven Rac1 GTP hydrolysis – biochemical, ADP Hunter fluorescence, primary and confirmatory, confirmation (AID 624330); assay type: functional
T10 sequence (Q9H0H5 whole entry): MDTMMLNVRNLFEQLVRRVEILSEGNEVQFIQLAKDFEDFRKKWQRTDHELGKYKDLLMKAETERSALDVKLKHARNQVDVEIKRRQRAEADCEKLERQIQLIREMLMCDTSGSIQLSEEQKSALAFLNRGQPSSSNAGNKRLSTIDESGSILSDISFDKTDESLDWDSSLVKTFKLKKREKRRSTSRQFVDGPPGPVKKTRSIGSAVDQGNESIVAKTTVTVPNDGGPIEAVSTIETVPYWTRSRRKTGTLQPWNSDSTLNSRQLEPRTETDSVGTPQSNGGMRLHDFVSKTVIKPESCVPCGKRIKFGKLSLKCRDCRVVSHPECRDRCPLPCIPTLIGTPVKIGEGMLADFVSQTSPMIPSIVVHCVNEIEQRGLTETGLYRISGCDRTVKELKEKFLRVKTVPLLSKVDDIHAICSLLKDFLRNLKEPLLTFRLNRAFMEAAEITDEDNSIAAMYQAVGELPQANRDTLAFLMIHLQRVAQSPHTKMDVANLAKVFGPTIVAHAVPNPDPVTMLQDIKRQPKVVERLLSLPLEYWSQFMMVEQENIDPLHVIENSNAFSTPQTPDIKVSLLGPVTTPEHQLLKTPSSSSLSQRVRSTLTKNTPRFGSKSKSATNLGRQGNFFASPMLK

Luciferin 4-monooxygenase, sequence (P08659 whole entry): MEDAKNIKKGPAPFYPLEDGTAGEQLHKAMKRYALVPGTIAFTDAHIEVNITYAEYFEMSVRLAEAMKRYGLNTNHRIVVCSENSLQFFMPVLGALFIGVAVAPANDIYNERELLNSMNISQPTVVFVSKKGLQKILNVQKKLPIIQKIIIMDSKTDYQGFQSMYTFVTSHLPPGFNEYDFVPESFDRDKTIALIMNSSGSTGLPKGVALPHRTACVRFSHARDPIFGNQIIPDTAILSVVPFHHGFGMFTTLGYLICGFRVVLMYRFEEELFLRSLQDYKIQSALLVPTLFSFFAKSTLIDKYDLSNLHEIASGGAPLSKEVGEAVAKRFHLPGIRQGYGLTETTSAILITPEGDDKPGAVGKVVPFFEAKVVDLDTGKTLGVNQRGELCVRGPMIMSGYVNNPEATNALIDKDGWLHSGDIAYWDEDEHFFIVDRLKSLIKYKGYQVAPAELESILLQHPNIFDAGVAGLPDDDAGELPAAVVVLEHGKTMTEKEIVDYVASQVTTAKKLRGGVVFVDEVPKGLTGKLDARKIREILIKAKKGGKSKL
T9 sequence (P63165 whole entry): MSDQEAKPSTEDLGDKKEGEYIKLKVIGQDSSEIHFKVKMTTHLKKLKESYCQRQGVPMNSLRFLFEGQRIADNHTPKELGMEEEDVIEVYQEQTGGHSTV

Structure (SMILES): CNC(=O)[C@@H]1C[C@H]1[C@@H](NC(=O)OCc1ccccc1)c1ccccc1
- CC50 [1]: > 40 µM (active)
- IC50 (Protein Tat): > 100 µM (active)

Structure (SMILES): CCOC(=O)N1CCN(c2cc(NCCO)c([N+](=O)[O-])c3nonc23)CC1
- IC50 [2]: > 50 µM (not active)

Structure (SMILES): COc1ccc(C2=Nc3ccccc3OC2)cc1
- IC50 (cells): 3.76 µM (active)
- EC50 (HT-1080): > 50 µM (not active)
- EC50 [3]: < 0.2 µM (active)

Structure (SMILES): O=C1CC(c2ccccc2)=NN1c1ccc([N+](=O)[O-])cc1
- IC50 [4]: 33.2 µM (active)
- IC50 [5]: 52.3 µM (active)
- EC50 (Protein RecA): 4.05 µM (active)
- AC50 [6]: 5.46 µM (active)

Structure (SMILES): O=C(Nc1ccc(C2=NCCN2)cc1)c1ccc(C(=O)Nc2ccc(C3=NCCN3)cc2)c(Cl)c1
- EC50 [7]: > 160 µM (inactive)
- AC50 [8]: 13.8 µM (active)
- IC50 [9]: 1.7 µM (active)
- IC50 (Bcl-2-related protein A1): 9.71 µM (active)
- IC50 [10]: 4.61 µM (active)
- IC50 [11]: > 66.6 µM (inactive)
- IC50 [12]: 3.32 µM (active)
- EC50 [13]: 0.157 µM (active)
- IC50 [14]: 35.8 µM (active)

Structure (SMILES): COC/C=C/C1=CC2=CC(=O)C(C)(OC(=O)c3cnc4ccccc4n3)C(=O)C2=CN1CCCOC(C)C (stereo not drawn)
- IC50 [4]: 19.9 µM (active)
- IC50 [5]: 8.09 µM (active)

Structure (SMILES): COc1cccc(C(=O)NCCC2=CCCCC2)c1
- EC50 (HT-1080): > 50 µM (not active)
- EC50 [3]: < 0.2 µM (active)

Structure (SMILES): C=CCN(CC=C)S(=O)(=O)c1ccc(C(=O)Nc2nnc(COC)o2)cc1
- EC50 [7]: 63.3 µM (active)
- CC50 [1]: 15.4 µM (active)

Structure (SMILES): O=C1NC(=O)C(Nc2ccccc2)C(=O)N1
- IC50 [4]: 22.5 µM (active)
- IC50 [5]: 28.5 µM (active)

Structure (SMILES): O=C(CNc1ccc2ccccc2c1)N/N=C/c1ccc(C(=O)O)cc1
- IC50 [2]: > 50 µM (not active)
